Experimental data reported in ChEMBL document CHEMBL1154836, “Synthesis of glycoside derivatives of hydroxyanthraquinone with ability to dissolve and inhibit formation of crystals of calcium oxalate. Potential compounds in kidney stone therapy” (Eur J Med Chem, 2010).

Columns and labels:
L929 = assay: Cytotoxicity against mouse L929 cells at 500 ug/ml; format: cell-based
[1] = Induction of calcium oxalate dissolution assessed as increase in calcium concentration after 5 days by flame photometry relative to untreated control; format: physicochemical; conditions: 120 h
[2] = Induction of surgically removed human kidney stone dissolution assessed as increase in calcium concentration after 5 days by flame photometry relative to untreated control; format: functional
[3] = Inhibition of calcium oxalate crystal formation assessed as change of shift in titration end point by conductometric titration; format: functional
A549 = assay: Cytotoxicity against human A549 cells at 500 ug/ml; format: cell-based

Row | Structure (SMILES) | Activity [1] | Activity (L929) | Activity [2] | Activity [3] | Activity (A549)
1 | O=C1c2ccccc2C(=O)c2c1ccc(O)c2O [ATHRAQUINONES A] | 246% | Toxic | 717% | 40 µL | Toxic
2 | O=C1c2ccc(O)c(O)c2C(=O)c2c(O)ccc(O)c21 [QUINALIZARIN] | 1324% |  | 4167% | 90 µL | 
3 | O=C1c2ccccc2C(=O)c2c(O)ccc(O)c21 [QUINIZARIN] | 205% | Toxic | 833% | 30 µL | Toxic
4 | O=C1c2ccc(O[C@@H]3O[C@H](CO)[C@H](O)[C@H](O)[C@H]3O)c(O)c2C(=O)c2c(O)ccc(O)c21 | 513% |  | 1667% | 170 µL | 
5 | O=C1c2ccc(O[C@@H]3O[C@H](CO)[C@@H](O)[C@H](O)[C@H]3O)c(O)c2C(=O)c2c(O)ccc(O)c21 | 1513% |  | 4833% | 180 µL | 

Now from value to molecule, other results behind:

Row | Activity [1] | Structure (SMILES) | Activity (L929) | Activity [2] | Activity [3] | Activity (A549)
6 | 541% | O=C1c2ccccc2C(=O)c2c(O[C@@H]3O[C@H](CO)[C@@H](O)[C@H](O)[C@H]3O)ccc(O)c21 | Non-toxic | 2000% | 60 µL | Non-toxic
7 | 595% | O=C1c2ccccc2C(=O)c2c1ccc(O[C@@H]1O[C@H](CO)[C@@H](O)[C@H](O)[C@H]1O)c2O | Non-toxic | 1583% | 80 µL | Non-toxic
8 | 432% | O=C1c2ccccc2C(=O)c2c1ccc(O[C@@H]1O[C@H](CO)[C@H](O)[C@H](O)[C@H]1O)c2O | Non-toxic | 1500% | 70 µL | Non-toxic
